Source: patent US20260356846A1, “STATIN DERIVATIVES AND METHODS OF USING THE SAME” (The General Hospital Corporation, priority 2023, published 2026)
Like-named read-outs stand apart in the source and are kept apart here.

Key:
[1] = tested on: STMN2 (WT STMN2-NLuc SH-SY5Y cells); assay: STMN2 nanoluciferase assay in WT SH-SY5Y cells (Table A: WT TDP-32; Table B: WT HD Luciferase); type: cell-based, human; conditions: WT cell line
Protocol: (§1) Neuroblastoma cells (ATCC) were cultured in DMEM/F12 (Gibco) supplemented with 10% fetal-bovine serum (Omega) and 1% penicillin-streptomycin (Gibco) at 37 °C with 5% CO2. For knockdown experiments, cells were transfected with SMARTpool ON-TARGETplus siRNA or control siRNA pool (D001810-10) (GE Dharmacon) at a final concentration of 50 nM, for 96 h in two doses (0, 24 h), after complexing with Lipofectamin RNAiMAX (Invitrogen) in Opti-MEM (Gibco) for 10 min.
(§2) WT and TDP-mut (N352S) SH-SY5Y cells were edited using CRISPR-Cas9 to express Nanoluciferase at the C-terminus of both endogenous STMN2 alleles. A single guided RNA targeting STMN2 C-terminus was designed (Benchling webtool) and cloned into pSpCas9-2A-green fluorescent protein (GFP) plasmid (px458-Addgene) using the BbsI restriction site. The sequence for guided RNA targeting STMN2 was: […]. For the repair template, overlapping fragments of 800 bp STMN2 homology arms flanking Nanoluciferase (NLuc, Promega) were generated and ligated into pUC57 backbone. A 42 bp GS-linker was also included 5′ to NLuc to prevent steric hindrance of the reporter to the final STMN2 exon. Fragments were ligated using Gibson Assembly and nucleofected simultaneously with pSpCas9-2A-GFP-gRNA plasmid using the Amaxa Nucleofector (assay A-023). Forty-eight hours following electroporation, cells were collected, and GFP-positive cells sorted and single-cell seeded into 96-well plates using the SH800S Sony cell sorter. Individual clones were expanded and DNA was extracted for PCR amplification of the STMN2 Ex5 genomic locus using primers within NLuc and outside the STMN2 5′ homology arm to confirm presence of the insert. The entire STMN2 coding region and all exon-intron junctions (>500-bp length of each intronic region) were then sequenced to verify the absence of any additional DNA alteration. qPCR analysis was performed with a wild-type isogenic SH-SY5Y cell line that had undergone the mutagenesis attempt but not acquired the insertion mutation during the original screening process.
(§3) TDP-mut STMN2-NLuc SH-SY5Y cells were used in small-molecule screening at ICCB-Longwood. 3000 cells/well were plated in white 384-well plates using a 50 ul sample volume. 24 hours after plating, compounds were added using 100 nl pin transfer. 24 hours later, 25 ul NLuc assay was added to each well according to manufacturer instructions (Promega, Cat #). Plates were shaken for 1 min prior to luminescence readings using EnVision2 machine. DMSO-only and WT STMN2-NLuc cells were included as negative and positive controls respectively on each plate, producing an average Z′score of ~0.7 across the screen. Each library plate was conducted in duplicate, and Z-scores calculated for each compound. For subsequent validation experiments, cell numbers in each well were quantified by hoescht staining at 1 μg/ml for 15 mins at 37C in black, clear bottom plates, prior to imaging at 4× using automated microscopy (ImageXpressMicro). Nuclei were then counted using a custom algorithm, and luciferase assay run as above. Luminescence results were then normalised against cell counts as RLU/cell.
(§4) Each compound was tested in triplicate in log doses ranging 0.01 μM−10 μM. The values are represented in luminescence normalized to the number of cells in the well, wherein darker grey correlates to higher RLU per cell and higher STMN2 protein expression.

[2] = tested on: STMN2 (TDP-mut (N352S) STMN2-NLuc SH-SY5Y cells); assay: STMN2 nanoluciferase assay in TDP-43 mutant SH-SY5Y cells (Table A: mut TDP-43; Table B: mut HD Luciferase); type: cell-based, human; conditions: mutant TDP-43 cell line
Protocol: as §1, §2, §3, §4

[3] = Homo sapiens, SH-SY5Y, Table B, Emax
[4] = Homo sapiens, SH-SY5Y, Table B, read-out: EC50, WT HD Luciferase
[5] = Homo sapiens, SH-SY5Y, Table B, read-out: EC50, mut HD Luciferase
[6] = Homo sapiens, SH-SY5Y, Table A, read-out: EC50, WT TDP-32
[7] = Homo sapiens, SH-SY5Y, Table A, read-out: EC50, mut TDP-43
[8] = Table B, read-out: EC50, WT HD Luciferase
[9] = Table B, read-out: EC50, mut HD Luciferase

Row | Structure (SMILES) | EC50 [1, 4] [nM] | EC50 [2, 5] [nM] | EC50 [1, 6] [nM] | EC50 [2, 7] [nM] | EC50 [1, 8] [nM] | EC50 [2, 9] [nM] | HD Luciferase (WT, Emax) ([1]; Table B, Emax) | maximal fold induction [1, 3] | HD Luciferase (mut, Emax) ([2]; Table B)
1 | COCc1c(C2CC2)nc(C2CC2)c(/C=C/[C@@H](O)C[C@@H](O)CC(=O)O)c1-c1ccc(F)cc1C [II-10, (3R,5S,E)-7-(2,6-dicyclopropyl-4-(4-fluoro-2-methylphenyl)-5-(methoxymethyl)pyridin-3-yl)-3,5-dihydroxyhept-6-enoic acid] | ≤ 10 | ≤ 10 | – | – | – | – | – | – | –
2 | COCc1c(C23CC(C2)C3)nc(C2CC2)c(/C=C/[C@@H](O)C[C@@H](O)CC(=O)O)c1-c1ccc(F)cc1Cl [II-1, (3R,5S,E)-7-(6-(bicyclo[1.1.1]pentan-1-yl)-4-(2-chloro-4-fluorophenyl)-2-cyclopropyl-5-(methoxymethyl)pyridin-3-yl)-3,5-dihydroxyhept-6-enoic acid] | 10 to 50 | 10 to 50 | 100 to 500 | 100 to 500 | – | – | – | – | **** (means≥1.5 and <1.75)
3 | COCc1c(C2CC2)nc(C2CC2)c(/C=C/[C@@H](O)C[C@@H](O)CC(=O)O)c1-c1c(C)cc(F)cc1F [II-17, (3R,5S,E)-7-(2,6-dicyclopropyl-4-(2,4-difluoro-6-methylphenyl)-5-(methoxymethyl)pyridin-3-yl)-3,5-dihydroxyhept-6-enoic acid] | ≤ 10 | ≤ 10 | – | – | – | – | – | 1.5 to 1.75 | –
4 | Cc1cc(F)ccc1-c1c(/C=C/[C@@H](O)C[C@@H](O)CC(=O)O)c(C2CC2)nc2c(C)csc12 [Example I-13, (3R,5S,E)-7-(5-cyclopropyl-7-(4-fluoro-2-methylphenyl)-3-methylthieno[3,2-b]pyridin-6-yl)-3,5-dihydroxyhept-6-enoic acid] | 10 to 50 | 10 to 50 | – | – | – | – | – | – | –
5 | Cc1cc2c(-c3ccc(F)cc3)c(/C=C/[C@@H](O)C[C@@H](O)CC(=O)O)c(C3CC3)nc2s1 [Example I-5a, (3R,5S,E)-7-(6-cyclopropyl-4-(4-fluorophenyl)-2-methylthieno[2,3-b]pyridin-5-yl)-3,5-dihydroxyhept-6-enoic acid] | – | – | – | – | ≥ 500 | ≥ 500 | – | 1 to 1.25 | * (means≥1 and <1.25)
6 | COCc1c(C2CCC2)nc(C2CC2)c(/C=C/[C@@H](O)C[C@@H](O)CC(=O)O)c1-c1ccc(F)cc1Cl [II-4, (3R,5S,E)-7-(4-(2-chloro-4-fluorophenyl)-6-cyclobutyl-2-cyclopropyl-5-(methoxymethyl)pyridin-3-yl)-3,5-dihydroxyhept-6-enoic acid] | ≤ 10 | ≤ 10 | ≤ 100 | ≤ 100 | – | – | – | – | –
7 | COCc1c(C23CC(C2)C3)nc(C2CC2)c(/C=C/[C@@H](O)C[C@@H](O)CC(=O)O)c1-c1ccc(F)cc1 [II-2, (3R,5S,E)-7-(6-(bicyclo[1.1.1]pentan-1-yl)-2-cyclopropyl-4-(4-fluorophenyl)-5-(methoxymethyl)pyridin-3-yl)-3,5-dihydroxyhept-6-enoic acid] | ≤ 10 | ≤ 10 | 100 to 500 | ≤ 100 | – | – | – | – | –
8 | Cc1nc2c(-c3ccc(F)cc3)c(/C=C/[C@@H](O)C[C@@H](O)CC(=O)O)c(C3CC3)cc2s1 [Example I-7, (3R,5S,E)-7-(6-cyclopropyl-4-(4-fluorophenyl)-2-methylbenzo[d]thiazol-5-yl)-3,5-dihydroxyhept-6-enoic acid] | 100 to 500 | 100 to 500 | 1000 to 5000 | 1000 to 5000 | – | – | – | 1 to 1.25 | ** (means≥1.25 and <1.5)
9 | O=C(O)C[C@H](O)C[C@H](O)/C=C/c1c(-c2ccc(F)cc2Cl)cc(C2CCC2)nc1C1CC1 [II-7, (3R,5S,E)-7-(4-(2-chloro-4-fluorophenyl)-6-cyclobutyl-2-cyclopropylpyridin-3-yl)-3,5-dihydroxyhept-6-enoic acid] | 10 to 50 | 50 to 100 | – | – | – | – | – | – | –
10 | COCc1c(C2CCC2)nc(C2CCC2)c(/C=C/[C@@H](O)C[C@@H](O)CC(=O)O)c1-c1ccc(F)cc1 [II-6, (3R,5S,E)-7-(2,6-dicyclobutyl-4-(4-fluorophenyl)-5-(methoxymethyl)pyridin-3-yl)-3,5-dihydroxyhept-6-enoic acid] | 10 to 50 | 10 to 50 | – | – | – | – | – | – | –
11 | O=C(O)C[C@H](O)C[C@H](O)/C=C/c1c(C2CC2)nc2c(C3CC3)csc2c1-c1ccc(F)cc1 [Example I-25, (3R,5S,E)-7-(3,5-dicyclopropyl-7-(4-fluorophenyl)thieno[3,2-b]pyridin-6-yl)-3,5-dihydroxyhept-6-enoic acid] | 10 to 50 | 10 to 50 | – | – | – | – | – | 1.5 to 1.75 | –
12 | Cc1cc2c(-c3ccc(F)cc3)c(/C=C/[C@@H](O)C[C@@H](O)CC(=O)O)c(C3CC3)nc2s1 [Example I-5c, (3R,5S,E)-7-(6-cyclopropyl-4-(4-fluorophenyl)-2-methylthieno[2,3-b]pyridin-5-yl)-3,5-dihydroxyhept-6-enoic acid] | – | – | – | – | 100 to 500 | 100 to 500 | ** (means≥1.25 and <1.5) | – | –

Now from value to compound, other results behind:

Row | EC50 [1, 4] [nM] | EC50 [2, 5] [nM] | EC50 [1, 6] [nM] | EC50 [2, 7] [nM] | EC50 [1, 8] [nM] | EC50 [2, 9] [nM] | HD Luciferase (WT, Emax) ([1]; Table B, Emax) | Structure (SMILES) | maximal fold induction [1, 3] | HD Luciferase (mut, Emax) ([2]; Table B)
13 | ≤ 10 | ≤ 10 | – | – | – | – | – | COCc1c(C2CC2)nc(C2CC2)c(/C=C/[C@@H](O)C[C@@H](O)CC(=O)O)c1-c1c(F)cc(F)cc1Cl [II-21, (3R,5S,E)-7-(4-(2-chloro-4,6-difluorophenyl)-2,6-dicyclopropyl-5-(methoxymethyl)pyridin-3-yl)-3,5-dihydroxyhept-6-enoic acid] | 1.5 to 1.75 | –
14 | 10 to 50 | 10 to 50 | – | – | – | – | – | COCc1c(C2CC2)nc(C2CC2)c(/C=C/[C@@H](O)C[C@@H](O)CC(=O)O)c1-c1cc(F)ccc1C [II-24, (3R,5S,E)-7-(2,6-dicyclopropyl-4-(5-fluoro-2-methylphenyl)-5-(methoxymethyl)pyridin-3-yl)-3,5-dihydroxyhept-6-enoic acid] | 1.25 to 1.5 | ** (means≥1.25 and <1.5)
15 | ≥ 500 | ≥ 500 | – | – | – | – | – | O=C(O)C[C@H](O)C[C@H](O)/C=C/c1c(-c2ccc(F)cc2Cl)cc(C2CC2)nc1C1CCC1 [II-27, (3R,5S,E)-7-(4-(2-chloro-4-fluorophenyl)-2-cyclobutyl-6-cyclopropylpyridin-3-yl)-3,5-dihydroxyhept-6-enoic acid] | 1 to 1.25 | * (means≥1 and <1.25)
16 | 10 to 50 | 10 to 50 | – | – | – | – | – | COCc1c(C2CC2)nc(C2CC2)c(/C=C/[C@@H](O)C[C@@H](O)CC(=O)O)c1-c1c(F)cccc1Cl [II-22, (3R,5S,E)-7-(4-(2-chloro-6-fluorophenyl)-2,6-dicyclopropyl-5-(methoxymethyl)pyridin-3-yl)-3,5-dihydroxyhept-6-enoic acid] | – | –
17 | 10 to 50 | 10 to 50 | – | – | – | – | – | COCc1c(C2CC2)nc(C2CC2)c(/C=C/[C@@H](O)C[C@@H](O)CC(=O)O)c1-c1cc(Cl)ccc1F [II-20, (3R,5S,E)-7-(4-(5-chloro-2-fluorophenyl)-2,6-dicyclopropyl-5-(methoxymethyl)pyridin-3-yl)-3,5-dihydroxyhept-6-enoic acid] | 1.25 to 1.5 | –
18 | ≥ 500 | ≥ 500 | – | – | – | – | – | COCc1c(C2CC2)nc(C)c(/C=C/[C@@H](O)C[C@@H](O)CC(=O)O)c1-c1ccc(F)cc1C [II-26, (3R,5S,E)-7-(6-cyclopropyl-4-(4-fluoro-2-methylphenyl)-5-(methoxymethyl)-2-methylpyridin-3-yl)-3,5-dihydroxyhept-6-enoic acid] | 1 to 1.25 | * (means≥1 and <1.25)
